For data set [1] the following is noted: DTA; for Normal melting temperature: Crystal 1.
Data set [2] can be described thus: Molar enthalpy of transition or fusion. The settings on record: Crystal 1; DSC.

Seven molecules from the NIST ThermoML archive (doi:10.1016/j.fluid.2015.06.015) can be followed below.

± gives the expanded uncertainty stated by the source.

As for `CCCCCCCCCC(=O)O` [decanoic acid], the Normal melting temperature in data set [1] is 32.33 ± 0.41 °C. In data set [2], the “Molar enthalpy of transition or fusion” value stood at 6.51 ± 0.217 kcal/mol.

Consider `CCCCCCCCCCCCCC(=O)O` [tetradecanoic acid], for which, in data set [1], the Normal melting temperature was determined as 55.78 ± 0.5 °C. Besides, the Triple point temperature in data set [1] (Crystal 2) was 327.95 ± 0.7 K. Also, the “Molar enthalpy of transition or fusion” value in data set [2] was found to be 10.5 ± 0.222 kcal/mol.

Regarding `CCCCCCCCCCCC(=O)O` [dodecanoic acid], the Normal melting temperature in data set [1] was 45.33 ± 1 °C. Moreover, the Triple point temperature in data set [1] (Crystal 2) was 317.91 ± 0.46 K. The “Molar enthalpy of transition or fusion” value in data set [2] was determined as 8.27 ± 0.502 kcal/mol.

For `CCCCCCCCCCO` [decan-1-ol], in data set [1], the Normal melting temperature turned out to be 6.96 ± 0.56 °C. In addition, the Triple point temperature in data set [1] (Crystal 2) stood at 275.94 ± 0.68 K. For the same molecule, the “Molar enthalpy of transition or fusion” value in data set [2] is 7.09 ± 0.43 kcal/mol.

On to `CCCCCCCC/C=C\CCCCCCCC(=O)OCC(COC(=O)CCCCCCC/C=C\CCCCCCCC)OC(=O)CCCCCCC/C=C\CCCCCCCC` [1,2,3-tri(cis-9-octadecenoyl)glycerol], for which the Normal melting temperature in data set [1] worked out at 5.42 ± 0.39 °C. Further, in data set [1] (Crystal 2), the Triple point temperature worked out at 258.99 ± 0.66 K. The “Molar enthalpy of transition or fusion” value in data set [2] came out at 27.4 ± 0.598 kcal/mol.

As to `CCCCCCCCCCCCO` [dodecan-1-ol], in data set [1], the Normal melting temperature was found to be 24.38 ± 0.39 °C. For the same molecule, the Triple point temperature was found to be 296.95 ± 0.39 K in data set [1] (Crystal 2) and 291.04 ± 0.7 K in data set [1] (Crystal 3). Besides, the “Molar enthalpy of transition or fusion” value in data set [2] is 9.19 ± 0.335 kcal/mol.

For the molecule `CCCCCCCCCCCCCCO` [1-tetradecanol], in data set [1], the Normal melting temperature is 38.0 ± 0.53 °C. For the same molecule, the Triple point temperature in data set [1] (Crystal 2) worked out at 310.06 ± 0.78 K. The “Molar enthalpy of transition or fusion” value in data set [2] came to 10.9 ± 0.454 kcal/mol.
